Reference: PMC8684776, “Discovery and characterization of potent And‐1 inhibitors for cancer treatment” (Clinical and Translational Medicine, 2021)

How the values were obtained:
[1] = tested on: IGROV1 cells; assay: Immunofluorescence of CtIP recruitment to micro-irradiation induced DSB sites; format: cell-based, human; conditions: 1 µM
Experimental: (§1) Supplementary Figure S1. Identification of novel And-1 inhibitors. […]
siAnd-1. S: S phase. (D) Immunofluorescence assay to detect CtIP and γH2AX foci formation after CH3 […]
IGROV1 cells treated with DMSO, 1 […]
to immunostain γH2AX and CtIP. For each experiment, 50 cells were counted and the percentage of cells with co-localization of γH2AX and CtIP foci was determined. Data represent means ± SEM from three independent experiments. (E) HR reporter assay to detect HR repair efficiency in cells treated with CH3. […]

[2] = tested on: IGROV1 cells; assay: HR reporter assay; format: cell-based, human; conditions: CH3 2 µM or 4 µM
Experimental: as §1
(E) HR reporter assay to detect HR repair efficiency in cells treated with CH3.
IGROV1 cells treated with DMSO, 2 µM or 4 µM of CH3 were subjected to HR reporter assay and the
percentage of GFP-positive cells was determined by flow cytometry 48 h after I-SceI plasmid transfection.
HR efficiency were normalized to those obtained from cells treated with DMSO. Data represent means ±
SEM from three independent experiments. (F) HR reporter assay to detect HR repair efficiency in cells
treated with BZA using approaches as in E.

[3] = molecular target: T1, And‐1 (Homo sapiens, UniProt O75717); assay: Immunoblot of And‐1 expression in IGROV1 cells; format: cell-based; conditions: read-out: IC50, And‐1 expression
T1 construct: expressed in transfected cells
T1 sequence (O75717 1-1129): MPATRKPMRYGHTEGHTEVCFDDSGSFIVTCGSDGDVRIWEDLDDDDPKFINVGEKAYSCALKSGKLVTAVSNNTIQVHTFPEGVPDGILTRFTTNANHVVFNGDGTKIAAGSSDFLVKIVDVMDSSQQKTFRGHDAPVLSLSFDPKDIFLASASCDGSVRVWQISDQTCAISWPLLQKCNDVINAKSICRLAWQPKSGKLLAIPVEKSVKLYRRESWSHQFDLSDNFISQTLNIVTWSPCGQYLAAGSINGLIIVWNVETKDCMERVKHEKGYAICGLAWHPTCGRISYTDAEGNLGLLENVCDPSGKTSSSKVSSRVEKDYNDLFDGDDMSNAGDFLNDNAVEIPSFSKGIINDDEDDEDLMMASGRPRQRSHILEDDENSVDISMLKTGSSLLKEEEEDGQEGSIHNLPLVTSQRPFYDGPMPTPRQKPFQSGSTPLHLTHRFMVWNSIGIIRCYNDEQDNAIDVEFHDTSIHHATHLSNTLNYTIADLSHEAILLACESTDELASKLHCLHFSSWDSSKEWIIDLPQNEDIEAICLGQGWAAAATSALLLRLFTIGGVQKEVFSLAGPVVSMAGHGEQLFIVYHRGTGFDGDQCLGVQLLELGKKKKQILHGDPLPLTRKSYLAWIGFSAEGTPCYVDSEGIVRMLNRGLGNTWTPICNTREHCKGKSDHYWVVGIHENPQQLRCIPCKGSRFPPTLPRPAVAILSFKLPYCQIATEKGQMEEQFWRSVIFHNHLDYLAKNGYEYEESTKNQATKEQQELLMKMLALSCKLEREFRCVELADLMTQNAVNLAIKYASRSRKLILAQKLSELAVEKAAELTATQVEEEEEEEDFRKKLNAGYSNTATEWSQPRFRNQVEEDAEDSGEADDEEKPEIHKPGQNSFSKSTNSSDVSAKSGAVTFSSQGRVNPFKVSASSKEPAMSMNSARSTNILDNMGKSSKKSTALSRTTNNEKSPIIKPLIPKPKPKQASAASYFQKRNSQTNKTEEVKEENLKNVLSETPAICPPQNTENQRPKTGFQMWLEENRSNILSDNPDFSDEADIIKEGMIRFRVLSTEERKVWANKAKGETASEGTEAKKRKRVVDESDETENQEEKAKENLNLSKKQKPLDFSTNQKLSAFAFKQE
Excerpt: The assay was as previously described.[45]
To evaluate whether And‐1 is required for tumor survival, we examined the dependence of a broad range of tumor cells on And‐1 by using dependency score analysis from DepMap (https://depmap.org/portal/). […] To identify And‐1 specific pharmacologic inhibitor, we established an HTS assay to identify small molecules that can inhibit And‐1 by inducing its degradation. To this end, we first established two stable cell lines, HEK293T‐And‐1‐Luc expressing And‐1 protein fused to a luciferase reporter gene, and HEK293T‐Luc expressing luciferase only (Figure 1B). HEK293T‐And‐1‐Luc cells allow us to monitor And‐1 protein levels by measuring luciferase activity in a high‐throughput manner. Using these cell lines, we conducted a screening for And‐1 inhibitors against a LOPAC small molecule library by using a quantitative HTS (qHTS) as we described previously.[46]
(A) Dependency score of WDHD1/And‐1 analyzed by DepMap. […] (B) Establishment of HEK293T‐And‐1‐Luc and HEK293T‐Luc cells for the high‐throughput screen (HTS). (C) Schematic diagram of quantitative HTS (qHTS) for And‐1 inhibitors. (D) Immunoblot analyses to detect And‐1 expression in IGROV1 cells treated with resveratrol at indicated concentrations. (E) Chemical structures of resveratrol and its three analogs as indicated. (F) Left, immunoblot analyses to detect And‐1 expression in IGROV1 cells treated with And‐1 inhibitors at the indicated concentration. Right, quantification of And‐1 expression shown in the left panel.

[4] = tested on: IGROV1 CR xenografts; assay: Cisplatin resistant IGROV1 CR xenograft in nude mice; format: in vivo, mouse
[5] = molecular target: T1, And‐1; assay: Cellular thermal shift assay; format: binding; conditions: IGROV1 cells, higher temperature, compared to DMSO

OB1OCc2cc(/C=C/c3ccc(Cl)c(Cl)c3)ccc21 [CH3, (E)‐5‐(3,4‐dichlorostyryl)benzo[c][1,2]oxaborol‐1(3H)‐ol]
recruitment of CtIP to DSB sites induced by micro‐irradiation [1]: significantly decreased | HR efficiency [2]: profoundly reduced HR efficiency | DC50 [3]: 2080 nM | expression of And‐1 in tumours (IHC) [4]: suppressed expression of And‐1 in tumours | resistant tumour growth, combination with cisplatin vs cisplatin alone ([4]; cisplatin 8 mg/kg + CH3 20 mg/kg or BZA 2 mg/kg, intraperitoneal, 3 weeks): significantly reduced resistant tumour growth | thermal stability of And‐1 protein [5]: stabilized
